Measurements taken from patent US9850283B2, “Macrocyclic inhibitors of the PD-1/PD-L1 and CD80(B7-1)/PD-L1 protein/protein interactions” (BRISTOL-MYERS SQUIBB COMPANY, priority 2013, dated 2017).
Positions of bridges follow the written chain, without caps; N, C: chain ends. Non-standard residues stand in square brackets, D forms with d. Residues, ends and D or L forms follow the SMILES beside them. Phe(4-guanidino) = N=C(N)Nc1ccc(C[C@H](N)C(=O)O)cc1; Phe(3-CF3) = N[C@@H](Cc1cccc(C(F)(F)F)c1)C(=O)O; Phe(4-CONH2) = NC(=O)c1ccc(C[C@H](N)C(=O)O)cc1; Phe(4-tBu) = CC(C)(C)c1ccc(C[C@H](N)C(=O)O)cc1; Phe(3,5-F2) = N[C@@H](Cc1cc(F)cc(F)c1)C(=O)O; Phe(4-CH2NH2) = NCc1ccc(C[C@H](N)C(=O)O)cc1; Phe(4-CN) = N#Cc1ccc(C[C@H](N)C(=O)O)cc1; Phe(4-Cl) = N[C@@H](Cc1ccc(Cl)cc1)C(=O)O; Phe(3-Me) = Cc1cccc(C[C@H](N)C(=O)O)c1; Phe(4-F) = N[C@@H](Cc1ccc(F)cc1)C(=O)O; Hyp = O=C(O)[C@@H]1C[C@@H](O)CN1; NMeNle = CCCC[C@H](NC)C(=O)O; NMeA = CN[C@@H](C)C(=O)O; Dap = NC[C@H](N)C(=O)O

What was measured:
[1] = molecular target: T1, LK35.2-hPD-L1 cells / PE-labeled PD-1-Ig (Homo sapiens, UniProt Q9NZQ7); test: LK35.2-hPD-L1 cell binding high-content screening assay; assay type: cell-based; conditions: cell binding assay, cell line not given; cluster symbol; read-out: CBA IC50 cluster
T1 construct: expressed in transfected cells; host or cells: LK35.2 mouse B cell line
T1 sequence (Q9NZQ7 19-290): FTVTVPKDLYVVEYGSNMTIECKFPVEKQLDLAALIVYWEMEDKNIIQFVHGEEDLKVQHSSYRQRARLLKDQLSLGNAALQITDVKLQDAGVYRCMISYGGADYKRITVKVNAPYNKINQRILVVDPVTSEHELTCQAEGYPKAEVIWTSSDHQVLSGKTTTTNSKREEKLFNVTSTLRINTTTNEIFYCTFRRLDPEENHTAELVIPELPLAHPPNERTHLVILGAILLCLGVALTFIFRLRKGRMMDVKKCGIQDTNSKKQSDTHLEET
In short: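 Binding of PE-conjugated human PD-1-Ig (1 nM final) to human PD-L1 stably expressed on a mouse B-cell line (LK35.2) was measured by high-content imaging after washes. Compound and labeled PD-1-Ig were co-incubated 1 h at 37 °C with cells in RPMI/10% FCS.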

[2] = molecular target: T2, Human PD-L1/PD-1 (Homo sapiens, UniProt Q9NZQ7); test: HTRF PD-1-Ig/PD-L1-His binding assay (human PD-L1); conditions: cluster symbol; read-out: HTRF IC50 cluster
T2 construct: made in house; host or cells: HEK293T
T2 sequence (Q9NZQ7 with tags, fused parts or gaps): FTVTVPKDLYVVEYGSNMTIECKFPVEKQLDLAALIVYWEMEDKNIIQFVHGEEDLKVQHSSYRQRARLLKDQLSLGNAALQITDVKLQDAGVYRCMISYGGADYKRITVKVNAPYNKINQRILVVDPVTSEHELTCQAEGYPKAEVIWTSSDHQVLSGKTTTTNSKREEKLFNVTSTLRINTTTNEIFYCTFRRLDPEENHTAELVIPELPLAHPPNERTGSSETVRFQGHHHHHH
In short: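 Soluble Fc-fused PD-1 and His-tagged PD-L1 (truncated before the transmembrane region) were combined in dPBS with 0.1% (w/v) BSA and 0.05% (v/v) Tween-20. Binding was read by HTRF using europium cryptate anti-Ig antibody (1 nM final) and APC anti-His antibody (20 nM final).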

Compound | IC50 [1] [nM] | IC50 [2] [nM]
CCCC[C@H]1C(=O)N(C)[C@@H](CCCC)C(=O)N[C@@H](CCCNC(=N)N)C(=O)N[C@H](C(=O)NCC(N)=O)CSCC(=O)N[C@@H](Cc2ccc(CN)cc2)C(=O)N(C)[C@@H](C)C(=O)N[C@@H](CC(N)=O)C(=O)N2CCC[C@H]2C(=O)N[C@@H](CN)C(=O)N[C@@H](CC(C)C)C(=O)N2C[C@H](O)C[C@H]2C(=O)N[C@@H](Cc2c[nH]c3ccccc23)C(=O)N[C@@H](CO)C(=O)N[C@@H](Cc2c[nH]c3ccccc23)C(=O)N1C [Example 7042] ({CH2CO}-[Phe(4-CH2NH2)][NMeA]NP[Dap]L[Hyp]WSW[NMeNle][NMeNle]RCG-NH2; thioether N-14) | 4.78 to 72.9 | 6.76 to 30.3
CCCC[C@H]1C(=O)N(C)[C@@H](CCCC)C(=O)N[C@@H](CCCNC(=N)N)C(=O)N[C@H](C(=O)NCC(N)=O)CSCC(=O)N[C@@H](Cc2cc(F)cc(F)c2)C(=O)N(C)[C@@H](C)C(=O)N[C@@H](CC(N)=O)C(=O)N2CCC[C@H]2C(=O)N[C@@H](CN)C(=O)N[C@@H](CC(C)C)C(=O)N2C[C@H](O)C[C@H]2C(=O)N[C@@H](Cc2c[nH]c3ccccc23)C(=O)N[C@@H](CO)C(=O)N[C@@H](Cc2c[nH]c3ccccc23)C(=O)N1C [Example 7043] ({CH2CO}-[Phe(3,5-F2)][NMeA]NP[Dap]L[Hyp]WSW[NMeNle][NMeNle]RCG-NH2; thioether N-14) | 4.78 to 72.9 | 6.76 to 30.3
CCCC[C@H]1C(=O)N(C)[C@@H](CCCC)C(=O)N[C@@H](CCCNC(=N)N)C(=O)N[C@H](C(=O)NCC(N)=O)CSCC(=O)N[C@@H](Cc2ccc(Cl)cc2)C(=O)N(C)[C@@H](C)C(=O)N[C@@H](CC(N)=O)C(=O)N2CCC[C@H]2C(=O)N[C@@H](CN)C(=O)N[C@@H](CC(C)C)C(=O)N2C[C@H](O)C[C@H]2C(=O)N[C@@H](Cc2c[nH]c3ccccc23)C(=O)N[C@@H](CO)C(=O)N[C@@H](Cc2c[nH]c3ccccc23)C(=O)N1C [Example 7044] ({CH2CO}-[Phe(4-Cl)][NMeA]NP[Dap]L[Hyp]WSW[NMeNle][NMeNle]RCG-NH2; thioether N-14) | 4.78 to 72.9 | 0.385 to 6.74
CCCC[C@H]1C(=O)N(C)[C@@H](CCCC)C(=O)N[C@@H](CCCNC(=N)N)C(=O)N[C@H](C(=O)NCC(N)=O)CSCC(=O)N[C@@H](Cc2ccc(F)cc2)C(=O)N(C)[C@@H](C)C(=O)N[C@@H](CC(N)=O)C(=O)N2CCC[C@H]2C(=O)N[C@@H](CN)C(=O)N[C@@H](CC(C)C)C(=O)N2C[C@H](O)C[C@H]2C(=O)N[C@@H](Cc2c[nH]c3ccccc23)C(=O)N[C@@H](CO)C(=O)N[C@@H](Cc2c[nH]c3ccccc23)C(=O)N1C [Example 7048] ({CH2CO}-[Phe(4-F)][NMeA]NP[Dap]L[Hyp]WSW[NMeNle][NMeNle]RCG-NH2; thioether N-14) | > 74.3 | 0.385 to 6.74
CCCC[C@H]1C(=O)N(C)[C@@H](CCCC)C(=O)N[C@@H](CCCNC(=N)N)C(=O)N[C@H](C(=O)NCC(N)=O)CSCC(=O)N[C@@H](Cc2ccc(N=C(N)N)cc2)C(=O)N(C)[C@@H](C)C(=O)N[C@@H](CC(N)=O)C(=O)N2CCC[C@H]2C(=O)N[C@@H](Cc2cnc[nH]2)C(=O)N[C@@H](CC(C)C)C(=O)N2C[C@H](O)C[C@H]2C(=O)N[C@@H](Cc2c[nH]c3ccccc23)C(=O)N[C@@H](CO)C(=O)N[C@@H](Cc2c[nH]c3ccccc23)C(=O)N1C [Example 7049] ({CH2CO}-[Phe(4-guanidino)][NMeA]NPHL[Hyp]WSW[NMeNle][NMeNle]RCG-NH2; thioether N-14) | > 74.3 | > 30.5
CCCC[C@H]1C(=O)N(C)[C@@H](CCCC)C(=O)N[C@@H](CCCNC(=N)N)C(=O)N[C@H](C(=O)NCC(N)=O)CSCC(=O)N[C@@H](Cc2ccc(C(N)=O)cc2)C(=O)N(C)[C@@H](C)C(=O)N[C@@H](CC(N)=O)C(=O)N2CCC[C@H]2C(=O)N[C@@H](Cc2cnc[nH]2)C(=O)N[C@@H](CC(C)C)C(=O)N2C[C@H](O)C[C@H]2C(=O)N[C@@H](Cc2c[nH]c3ccccc23)C(=O)N[C@@H](CO)C(=O)N[C@@H](Cc2c[nH]c3ccccc23)C(=O)N1C [Example 7050] ({CH2CO}-[Phe(4-CONH2)][NMeA]NPHL[Hyp]WSW[NMeNle][NMeNle]RCG-NH2; thioether N-14) | 4.78 to 72.9 | 0.385 to 6.74
CCCC[C@H]1C(=O)N(C)[C@@H](CCCC)C(=O)N[C@@H](CCCNC(=N)N)C(=O)N[C@H](C(=O)NCC(N)=O)CSCC(=O)N[C@@H](Cc2cc(F)cc(F)c2)C(=O)N(C)[C@@H](C)C(=O)N[C@@H](CC(N)=O)C(=O)N2CCC[C@H]2C(=O)N[C@@H](Cc2cnc[nH]2)C(=O)N[C@@H](CC(C)C)C(=O)N2C[C@H](O)C[C@H]2C(=O)N[C@@H](Cc2c[nH]c3ccccc23)C(=O)N[C@@H](CO)C(=O)N[C@@H](Cc2c[nH]c3ccccc23)C(=O)N1C [Example 7051] ({CH2CO}-[Phe(3,5-F2)][NMeA]NPHL[Hyp]WSW[NMeNle][NMeNle]RCG-NH2; thioether N-14) | 4.78 to 72.9 | 6.76 to 30.3

Now from value to compound:

IC50 [1] [nM] | IC50 [2] [nM] | Compound
> 74.3 | > 30.5 | CCCC[C@H]1C(=O)N(C)[C@@H](CCCC)C(=O)N[C@@H](CCCNC(=N)N)C(=O)N[C@H](C(=O)NCC(N)=O)CSCC(=O)N[C@@H](Cc2ccc(C(C)(C)C)cc2)C(=O)N(C)[C@@H](C)C(=O)N[C@@H](CC(N)=O)C(=O)N2CCC[C@H]2C(=O)N[C@@H](Cc2cnc[nH]2)C(=O)N[C@@H](CC(C)C)C(=O)N2C[C@H](O)C[C@H]2C(=O)N[C@@H](Cc2c[nH]c3ccccc23)C(=O)N[C@@H](CO)C(=O)N[C@@H](Cc2c[nH]c3ccccc23)C(=O)N1C [Example 7045] ({CH2CO}-[Phe(4-tBu)][NMeA]NPHL[Hyp]WSW[NMeNle][NMeNle]RCG-NH2; thioether N-14)
0.158 to 4.71 | 0.385 to 6.74 | CCCC[C@H]1C(=O)N(C)[C@@H](CCCC)C(=O)N[C@@H](CCCNC(=N)N)C(=O)N[C@H](C(=O)NCC(N)=O)CSCC(=O)N[C@@H](Cc2ccc(C#N)cc2)C(=O)N(C)[C@@H](C)C(=O)N[C@@H](CC(N)=O)C(=O)N2CCC[C@H]2C(=O)N[C@@H](Cc2cnc[nH]2)C(=O)N[C@@H](CC(C)C)C(=O)N2C[C@H](O)C[C@H]2C(=O)N[C@@H](Cc2c[nH]c3ccccc23)C(=O)N[C@@H](CO)C(=O)N[C@@H](Cc2c[nH]c3ccccc23)C(=O)N1C [Example 7046] ({CH2CO}-[Phe(4-CN)][NMeA]NPHL[Hyp]WSW[NMeNle][NMeNle]RCG-NH2; thioether N-14)
4.78 to 72.9 | 0.385 to 6.74 | CCCC[C@H]1C(=O)N(C)[C@@H](CCCC)C(=O)N[C@@H](CCCNC(=N)N)C(=O)N[C@H](C(=O)NCC(N)=O)CSCC(=O)N[C@@H](Cc2ccc(F)cc2)C(=O)N(C)[C@@H](C)C(=O)N[C@@H](CC(N)=O)C(=O)N2CCC[C@H]2C(=O)N[C@@H](Cc2cnc[nH]2)C(=O)N[C@@H](CC(C)C)C(=O)N2C[C@H](O)C[C@H]2C(=O)N[C@@H](Cc2c[nH]c3ccccc23)C(=O)N[C@@H](CO)C(=O)N[C@@H](Cc2c[nH]c3ccccc23)C(=O)N1C [Example 7047] ({CH2CO}-[Phe(4-F)][NMeA]NPHL[Hyp]WSW[NMeNle][NMeNle]RCG-NH2; thioether N-14)
4.78 to 72.9 | 6.76 to 30.3 | CCCC[C@H]1C(=O)N(C)[C@@H](CCCC)C(=O)N[C@@H](CCCNC(=N)N)C(=O)N[C@H](C(=O)NCC(N)=O)CSCC(=O)N[C@@H](Cc2ccc(CN)cc2)C(=O)N(C)[C@@H](C)C(=O)N[C@@H](CC(N)=O)C(=O)N2CCC[C@H]2C(=O)N[C@@H](Cc2cnc[nH]2)C(=O)N[C@@H](CC(C)C)C(=O)N2C[C@H](O)C[C@H]2C(=O)N[C@@H](Cc2c[nH]c3ccccc23)C(=O)N[C@@H](CO)C(=O)N[C@@H](Cc2c[nH]c3ccccc23)C(=O)N1C [Example 7053] ({CH2CO}-[Phe(4-CH2NH2)][NMeA]NPHL[Hyp]WSW[NMeNle][NMeNle]RCG-NH2; thioether N-14)
0.158 to 4.71 | 0.385 to 6.74 | CCCC[C@H]1C(=O)N(C)[C@@H](CCCC)C(=O)N[C@@H](CCCNC(=N)N)C(=O)N[C@H](C(=O)NCC(N)=O)CSCC(=O)N[C@@H](Cc2ccc(Cl)cc2)C(=O)N(C)[C@@H](C)C(=O)N[C@@H](CC(N)=O)C(=O)N2CCC[C@H]2C(=O)N[C@@H](Cc2cnc[nH]2)C(=O)N[C@@H](CC(C)C)C(=O)N2C[C@H](O)C[C@H]2C(=O)N[C@@H](Cc2c[nH]c3ccccc23)C(=O)N[C@@H](CO)C(=O)N[C@@H](Cc2c[nH]c3ccccc23)C(=O)N1C [Example 7054] ({CH2CO}-[Phe(4-Cl)][NMeA]NPHL[Hyp]WSW[NMeNle][NMeNle]RCG-NH2; thioether N-14)
> 74.3 | 6.76 to 30.3 | CCCC[C@H]1C(=O)N(C)[C@@H](CCCC)C(=O)N[C@@H](CCCNC(=N)N)C(=O)N[C@H](C(=O)NCC(N)=O)CSCC(=O)N[C@@H](Cc2cccc(C(F)(F)F)c2)C(=O)N(C)[C@@H](C)C(=O)N[C@@H](CC(N)=O)C(=O)N2CCC[C@H]2C(=O)N[C@@H](Cc2cnc[nH]2)C(=O)N[C@@H](CC(C)C)C(=O)N2C[C@H](O)C[C@H]2C(=O)N[C@@H](Cc2c[nH]c3ccccc23)C(=O)N[C@@H](CO)C(=O)N[C@@H](Cc2c[nH]c3ccccc23)C(=O)N1C [Example 7056] ({CH2CO}-[Phe(3-CF3)][NMeA]NPHL[Hyp]WSW[NMeNle][NMeNle]RCG-NH2; thioether N-14)
4.78 to 72.9 | 0.385 to 6.74 | CCCC[C@H]1C(=O)N(C)[C@@H](CCCC)C(=O)N[C@@H](CCCNC(=N)N)C(=O)N[C@H](C(=O)NCC(N)=O)CSCC(=O)N[C@@H](Cc2cccc(C)c2)C(=O)N(C)[C@@H](C)C(=O)N[C@@H](CC(N)=O)C(=O)N2CCC[C@H]2C(=O)N[C@@H](Cc2cnc[nH]2)C(=O)N[C@@H](CC(C)C)C(=O)N2C[C@H](O)C[C@H]2C(=O)N[C@@H](Cc2c[nH]c3ccccc23)C(=O)N[C@@H](CO)C(=O)N[C@@H](Cc2c[nH]c3ccccc23)C(=O)N1C [Example 7057] ({CH2CO}-[Phe(3-Me)][NMeA]NPHL[Hyp]WSW[NMeNle][NMeNle]RCG-NH2; thioether N-14)
